Assay: Pharmacokinetics following oral or subcutaneous administration in healthy and CIA rats
Conditions: rat, in vivo
Procedure: Pharmacokinetics following oral or subcutaneous administration of LrS235. Pharmacokinetics following oral or subcutaneous administration of LrS235 are conducted to determine the efficacy of ShK-235 entry into the circulation after its delivery via LrS235, an oral capsule, or subcutaneous injection, and the duration for which the peptide can be detected in the blood after a single bolus or repeated administration to rats with the CIA model of RA. The circulating levels of ShK-235 are quantified with two complementary and well-established techniques, mass spectrometry and single-cell patch-clamp, as the inventors and others have done with ShK, ShK analogs, and other Kv1.3 channel modulators^6,16,37,47-49,65. Tandem liquid chromatography triple quadrupole mass spectrometry (LC-QQQ-MS) is commonly used to rapidly detect and quantify small molecules and peptides for pharmacokinetics. As a complement, single-cell patch-clamp allows for the detection and quantification of functional peptide. This quantitative method (FIG. 9) has a low pM detection limit for the functional peptide. This technique has been validated and used to detect ShK-235 in the circulation of rats administrated the peptide via a capsule or via LrS235 (FIG. 8). […]

SMILES: CC[C@H](C)[C@@H]1NC(=O)[C@H](CO)NC(=O)[C@H](Cc2c[nH]cn2)NC(=O)[C@H](CCCCN)NC(=O)[C@@H]2CSSC[C@@H]3NC(=O)[C@H]([C@@H](C)O)NC(=O)[C@H](CCCCN)NC(=O)[C@H](CCCNC(=N)N)NC(=O)[C@H](CSSC[C@H](NC(=O)[C@H](CCCNC(=N)N)NC(=O)[C@H](CO)NC(=O)[C@H](CCCCN)NC(=O)[C@@H]4CCCN4C(=O)[C@H]([C@@H](C)CC)NC(=O)[C@H]([C@@H](C)O)NC(=O)[C@H](CC(=O)O)NC(=O)[C@H]([C@@H](C)CC)NC(=O)[C@@H](NC(=O)[C@H](CO)NC(=O)[C@@H](N)CCCNC(=N)N)CSSC[C@@H](C(=O)N[C@@H](C)C(=O)O)NC(=O)[C@H]([C@@H](C)O)NC(=O)CNC3=O)C(=O)N[C@@H]([C@@H](C)O)C(=O)N[C@@H](C)C(=O)N[C@@H](Cc3ccccc3)C(=O)N[C@@H](CCCCN)C(=O)N2)NC(=O)[C@H](Cc2ccccc2)NC(=O)[C@H](CO)NC(=O)[C@H](CC(C)C)NC(=O)[C@H](CCCNC(=N)N)NC(=O)[C@H](Cc2ccc(O)cc2)NC(=O)[C@H](CCCCN)NC1=O [ShK-235]
- Detection of ShK-235 in the circulation: detected

Source: patent US20250213627A1, “RECOMBINANT MICROORGANISM-BASED METHODS AND COMPOSITIONS FOR TREATMENT OF DISEASE” (Baylor College of Medicine, priority 2021, published 2025)
